According to patent publication US20230264009A1, “DISINFECTING CAP KIT FOR LUER ACCESS DEVICES” (SterileCare Inc., priority 2022, published 2023):

How the values were obtained:
C. albicans ON47 = assay: MIC, micro broth dilution; format: cell-based, Candida albicans; conditions: alone, 24 h
Description: (§1) An assay was made using a minimum inhibitory concentration (MIC) and minimum bactericidal concentration (MBC) and minimum fungicidal concentration (MFC) determination. The MIC was determined by the micro broth dilution method in 96-well plates. Serial two-fold dilutions of tetrasodium EDTA (from 2% to 0.015%), ethanol (from 50% to 0.1%) and chlorhexidine HCl (from 100 µg/mL to 0.025 µg/mL) were prepared in MH broth with a final volume of 90 µL per well. A 10 µL containing 1 × 10^5 bacterial cells or 2 × 10^3 fungal cells were added to each well. The inoculated plates were covered with a lid, sealed with Parafilm, and incubated for 24 h at 37° C. with slight rocking on a tilting platform shaker. After incubation, the optical density at 600 nm (OD 600 ) of the cultures in each well was measured using an xMark™ Microplate Absorbance Spectrophotometer (Bio-Rad). […] MBCs and MFCs were determined by transferring 100 µL from each well with no apparent growth onto appropriate agar plates, followed by incubation for 24 h at 37° C.

[1] = tested on: 48-h-old biofilms of bacterial and fungal strains; assay: MBEC Assay, 24 h exposure (summary); format: cell-based; conditions: following 24 h of treatment
Description: A biofilm cultivation cell composition was provided. This fifth composition was created using an MBEC Assay® biofilm inoculator, consisting of a polystyrene lid with 96 downward-protruding pegs and a corresponding base used to grow biofilms. A standardized inoculum was diluted in an appropriate biofilm growth medium to achieve a viable cell count of 1.5 × 10^6 CFU/mL of bacterial cells or […] CFU/mL of fungal cells. Then, 150 µL of this inoculum was transferred into each appropriate well, and the peg lids were inserted into the microtiter plates. The plates were sealed with Parafilm and were incubated at optimum temperature for 48 h with slight rocking for bacteria and shaking at 200 rpm for fungal strains. After incubation, the peg lid was removed from the base and rinsed twice with sterile phosphate-buffered saline (PBS) for 2 min to remove loosely attached non-sessile cells. Before the antimicrobial challenge, the pegs in column 1 (n = 8) were considered the biofilm growth control; these pegs were removed from the lids, placed into 200 µL of recovery medium, and analyzed for starting biofilm cell numbers as described below. […] After the antimicrobial challenge, the pegs were rinsed twice with sterile PBS for 2 min and placed into a new 96-well plate containing 200 µL of recovery medium. The recovery plates were sealed with Parafilm, and biofilm cells were dislodged from the pegs by sonication for 30 min with a Branson 3510 bath sonicator. The biofilm cells in the recovery medium were serially diluted, and a drop dilution assay was performed to enumerate the viable cells. MBEC values were determined as the minimum concentration of antimicrobials that yielded a viable cell count at or lower than the 125 CFU/mL detection limit.

[2] = tested on: Pseudomonas aeruginosa SK1; assay: Checkerboard titration, FICI; format: cell-based; conditions: P. aeruginosa SK1
Description: (§2) A fourth composition and solution included tetrasodium EDTA with ethanol or chlorhexidine HCl. This fourth composition and solution were created using checkerboard titration methods using micro broth dilution in 96-well microtiter plates. The concentrations of antimicrobials used were based on previously determined MIC values. Briefly, 200 µL of two-fold dilutions of tetrasodium EDTA and ethanol or chlorhexidine HCl were prepared in MH or MH II broth with standardized cell suspension. […] Microtiter plates were incubated at 37° C. for 24 h, and the results were analyzed. Each test was performed in duplicate and included a growth control without adding any antimicrobials.

[3] = tested on: Staphylococcus aureus ON89; assay: Checkerboard titration, FICI; format: cell-based; conditions: S. aureus ON89
Description: as §2

Proteus mirabilis ON153 [4] = assay: Checkerboard titration, FICI; format: cell-based; conditions: P. mirabilis ON153
Description: as §2

Candida albicans SK4b [5] = assay: Checkerboard titration, FICI; format: cell-based; conditions: C. albicans SK4b
Description: as §2

[6] = tested on: Stenotrophomonas maltophilia ON17; assay: Checkerboard titration, FICI; format: cell-based; conditions: S. maltophilia ON17
Description: as §2

[7] = tested on: Staphylococcus epidermidis ON170; assay: Checkerboard titration, FICI; format: cell-based; conditions: S. epidermidis ON170
Description: as §2

Escherichia coli ON29 [8] = assay: Checkerboard titration, FICI; format: cell-based; conditions: E. coli ON29
Description: as §2

Serratia marcescens SK2 [9] = assay: Checkerboard titration, FICI; format: cell-based; conditions: S. marcescens SK2
Description: as §2

[10] = tested on: Pseudomonas aeruginosa SK1; assay: MBC/MFC determination; format: cell-based; conditions: alone; P. aeruginosa SK1
Description: as §1

[11] = tested on: Staphylococcus aureus ON89; assay: MBC/MFC determination; format: cell-based; conditions: alone; S. aureus ON89
Description: as §1

Proteus mirabilis ON153 [12] = assay: MBC/MFC determination; format: cell-based; conditions: alone; P. mirabilis ON153
Description: as §1

Candida albicans SK4b [13] = assay: MBC/MFC determination; format: cell-based; conditions: alone; C. albicans SK4b
Description: as §1

[14] = tested on: Stenotrophomonas maltophilia ON17; assay: MBC/MFC determination; format: cell-based; conditions: alone; S. maltophilia ON17
Description: as §1

[15] = tested on: Staphylococcus epidermidis ON170; assay: MBC/MFC determination; format: cell-based; conditions: alone; S. epidermidis ON170
Description: as §1

Escherichia coli ON29 [16] = assay: MBC/MFC determination; format: cell-based; conditions: alone; E. coli ON29
Description: as §1

Serratia marcescens SK2 [17] = assay: MBC/MFC determination; format: cell-based; conditions: alone; S. marcescens SK2
Description: as §1

[18] = tetrasodium EDTA + chlorhexidine HCl

O=C([O-])CN(CCN(CC(=O)[O-])CC(=O)[O-])CC(=O)[O-].[Na+].[Na+].[Na+].[Na+] [EDTA, tetrasodium EDTA]
MIC (C. albicans ON47): 1 % w/v | Concentration alone able to eradicate all established biofilms [1]: 4% | Concentration in combination giving FICI [2, 18]: 0.5 % w/v | Concentration in combination giving FICI ([2]; tetrasodium EDTA + ethanol): 0.031 % w/v | Concentration in combination giving FICI [3, 18]: 0.008 % w/v | Concentration in combination giving FICI ([3]; tetrasodium EDTA + ethanol): 0.015 % w/v | Concentration in combination giving FICI (Proteus mirabilis ON153 [4]; [18]): 0.063 % w/v | Concentration in combination giving FICI (Proteus mirabilis ON153 [4]; tetrasodium EDTA + ethanol): 0.5 % w/v | Concentration in combination giving FICI (Candida albicans SK4b [5]; [18]): 0.063 % w/v | Concentration in combination giving FICI (Candida albicans SK4b [5]; tetrasodium EDTA + ethanol): 0.25 % w/v | Concentration in combination giving FICI [6, 18]: 0.015 % w/v | Concentration in combination giving FICI ([6]; tetrasodium EDTA + ethanol): 0.031 % w/v | Concentration in combination giving FICI [7, 18]: 0.063 % w/v | Concentration in combination giving FICI ([7]; tetrasodium EDTA + ethanol): 0.015 % w/v | Concentration in combination giving FICI (Escherichia coli ON29 [8]; [18]): 0.008 % w/v | Concentration in combination giving FICI (Escherichia coli ON29 [8]; tetrasodium EDTA + ethanol): 0.25 % w/v | Concentration in combination giving FICI (Serratia marcescens SK2 [9]; [18]): 0.063 % w/v | Concentration in combination giving FICI (Serratia marcescens SK2 [9]; tetrasodium EDTA + ethanol): 0.5 % w/v | MBC/MFC [10]: 1 % w/v | MBC/MFC [11]: 1 % w/v | MBC/MFC (Proteus mirabilis ON153 [12]): 2 % w/v | MBC/MFC (Candida albicans SK4b [13]): 1 % w/v | MBC/MFC [14]: 1 % w/v | MBC/MFC [15]: 0.5 % w/v | MBC/MFC (Escherichia coli ON29 [16]): 1 % w/v | MBC/MFC (Serratia marcescens SK2 [17]): 2 % w/v
